Reference: patent US10913744B2, “LRRK2 inhibitors and methods of making and using the same” (Dana-Farber Cancer Institute, Inc., priority 2015, dated 2021)
Where two headings read alike, the source gives them in different places.

Assays:
EGFR (S752-I759del) = EGFR (S752-I759del) (Homo sapiens (Human), UniProt P00533, DEL752-759); assay: KinomeScan; format: binding; settings: 1 uM
JNK1 = JNK1 (Homo sapiens (Human), UniProt P45983); assay: Dundee profiling
PIM3 = PIM3 (Homo sapiens (Human), UniProt Q86V86); assay: Dundee profiling
IRAK4 = IRAK4 (Homo sapiens (Human), UniProt Q9NWZ3); assay: KinomeScan; format: binding; settings: 1 uM
ABL = ABL (Homo sapiens (Human), UniProt P00519); assay: Dundee profiling
MAP4K3 = MAP4K3 (Homo sapiens (Human), UniProt Q8IVH8); assay: Dundee profiling
Aurora B = Aurora B (Homo sapiens (Human), UniProt Q96GD4); assay: Dundee profiling
LKB1 = LKB1 (Homo sapiens (Human), UniProt Q15831); assay: Dundee profiling
MKK6 = MKK6 (Homo sapiens (Human), UniProt P52564); assay: Dundee profiling
IRAK1 = IRAK1 (Homo sapiens (Human), UniProt P51617); assay: Dundee profiling
IKKb = IKKb (Homo sapiens (Human), UniProt O14920); assay: Dundee profiling
ULK2 = ULK2 (Homo sapiens (Human), UniProt Q8IYT8); assay: Dundee profiling
TESK1 = TESK1 (Homo sapiens (Human), UniProt Q15569); assay: Dundee profiling
PAK4 = PAK4 (Homo sapiens (Human), UniProt O96013); assay: Dundee profiling
PIM1 = PIM1 (Homo sapiens (Human), UniProt P11309); assay: Dundee profiling
CDC2L5 = CDC2L5 (Homo sapiens (Human), UniProt Q14004); assay: KinomeScan; format: binding; settings: 1 uM
Excerpt: The kinase selectivity of Compound 18 was further evaluated by KinomeScan.

PLK1 = PLK1 (Homo sapiens (Human), UniProt P53350); assay: Dundee profiling
DYRK1A = DYRK1A (Homo sapiens (Human), UniProt Q13627); assay: Dundee profiling
MST3 [1] = biological target: T1, MST3 (Homo sapiens (Human), UniProt Q9Y6E0); assay: KinomeScan; format: binding; settings: 1 uM
T1 sequence (Q9Y6E0 whole entry, species assumed): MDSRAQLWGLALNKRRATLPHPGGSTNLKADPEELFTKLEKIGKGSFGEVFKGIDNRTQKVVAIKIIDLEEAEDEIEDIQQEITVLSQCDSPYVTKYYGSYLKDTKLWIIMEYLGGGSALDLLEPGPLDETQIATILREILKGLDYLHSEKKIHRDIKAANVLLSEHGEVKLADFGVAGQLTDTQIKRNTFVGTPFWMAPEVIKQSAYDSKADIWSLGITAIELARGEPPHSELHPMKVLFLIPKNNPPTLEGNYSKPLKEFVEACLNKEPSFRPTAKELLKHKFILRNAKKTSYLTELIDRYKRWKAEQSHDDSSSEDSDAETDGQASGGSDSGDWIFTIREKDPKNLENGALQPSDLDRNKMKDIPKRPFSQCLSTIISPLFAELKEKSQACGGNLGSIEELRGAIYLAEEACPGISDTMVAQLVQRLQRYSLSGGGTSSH

EPHB2 = EPHB2 (Homo sapiens (Human), UniProt P29323); assay: KinomeScan; format: binding; settings: 1 uM
GCK = GCK (Homo sapiens (Human), UniProt Q12851); assay: Dundee profiling
GCK, sequence (Q12851 whole entry): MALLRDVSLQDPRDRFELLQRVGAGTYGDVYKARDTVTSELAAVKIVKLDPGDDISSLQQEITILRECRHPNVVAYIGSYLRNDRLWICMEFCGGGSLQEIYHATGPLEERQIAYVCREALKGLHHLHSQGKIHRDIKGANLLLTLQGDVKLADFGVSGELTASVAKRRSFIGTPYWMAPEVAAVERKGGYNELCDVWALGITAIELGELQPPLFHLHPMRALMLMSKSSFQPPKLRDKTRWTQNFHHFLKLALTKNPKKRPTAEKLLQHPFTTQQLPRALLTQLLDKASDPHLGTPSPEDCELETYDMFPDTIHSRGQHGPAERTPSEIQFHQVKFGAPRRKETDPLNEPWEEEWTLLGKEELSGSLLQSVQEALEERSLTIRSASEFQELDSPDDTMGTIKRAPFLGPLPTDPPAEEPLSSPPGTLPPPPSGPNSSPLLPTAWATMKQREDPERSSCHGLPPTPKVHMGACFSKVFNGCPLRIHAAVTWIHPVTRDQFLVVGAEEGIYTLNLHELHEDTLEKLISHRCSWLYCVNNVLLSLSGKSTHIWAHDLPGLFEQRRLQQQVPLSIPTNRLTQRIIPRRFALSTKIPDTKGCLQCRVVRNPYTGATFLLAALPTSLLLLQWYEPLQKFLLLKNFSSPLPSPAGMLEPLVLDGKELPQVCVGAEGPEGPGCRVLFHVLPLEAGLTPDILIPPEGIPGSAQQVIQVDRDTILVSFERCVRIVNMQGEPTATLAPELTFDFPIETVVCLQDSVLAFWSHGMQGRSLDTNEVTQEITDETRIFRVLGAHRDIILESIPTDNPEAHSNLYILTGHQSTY

MST3 [2] = biological target: T1, MST3; assay: Dundee profiling
MET (M1250T) = MET (M1250T) (Homo sapiens (Human), UniProt P08581, M1250T); assay: KinomeScan; format: binding; settings: 1 uM
MPSK1 = MPSK1 (Homo sapiens (Human), UniProt O75716); assay: Dundee profiling
CHK2 = CHK2 (Homo sapiens (Human), UniProt O96017); assay: Dundee profiling
CHK2, sequence (O96017 whole entry, species assumed): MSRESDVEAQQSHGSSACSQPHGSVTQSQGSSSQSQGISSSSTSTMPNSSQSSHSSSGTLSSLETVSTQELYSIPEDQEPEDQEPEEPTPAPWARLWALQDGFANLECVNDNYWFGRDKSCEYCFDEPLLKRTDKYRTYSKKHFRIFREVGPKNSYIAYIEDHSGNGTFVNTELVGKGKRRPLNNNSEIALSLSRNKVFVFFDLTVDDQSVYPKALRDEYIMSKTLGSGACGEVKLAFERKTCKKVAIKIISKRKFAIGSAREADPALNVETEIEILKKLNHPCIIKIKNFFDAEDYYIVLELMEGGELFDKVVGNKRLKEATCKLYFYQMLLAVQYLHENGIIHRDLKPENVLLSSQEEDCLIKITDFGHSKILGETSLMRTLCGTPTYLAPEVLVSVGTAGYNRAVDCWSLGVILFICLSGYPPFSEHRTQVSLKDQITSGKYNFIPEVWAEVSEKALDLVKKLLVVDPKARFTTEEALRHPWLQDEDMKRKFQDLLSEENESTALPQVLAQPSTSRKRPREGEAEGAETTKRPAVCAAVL

MST4 = MST4 (Homo sapiens (Human), UniProt Q9P289); assay: Dundee profiling
ULK3 = ULK3 (Homo sapiens (Human), UniProt Q6PHR2); assay: KinomeScan; format: binding; settings: 1 uM
TrkA = TrkA (Homo sapiens (Human), UniProt P04629); assay: Dundee profiling
IRR = IRR (Homo sapiens (Human), UniProt P14616); assay: Dundee profiling
MET = MET (Homo sapiens (Human), UniProt P08581); assay: KinomeScan; format: binding; settings: 1 uM
DLK = DLK (Homo sapiens (Human), UniProt Q12852); assay: KinomeScan; format: binding; settings: 1 uM
PDGFRA = PDGFRA (Homo sapiens (Human), UniProt P16234); assay: Dundee profiling
EPH-A4 = EPH-A4 (Homo sapiens (Human), UniProt P54764); assay: Dundee profiling
EPH-A4, sequence (P54764 20-986, species assumed): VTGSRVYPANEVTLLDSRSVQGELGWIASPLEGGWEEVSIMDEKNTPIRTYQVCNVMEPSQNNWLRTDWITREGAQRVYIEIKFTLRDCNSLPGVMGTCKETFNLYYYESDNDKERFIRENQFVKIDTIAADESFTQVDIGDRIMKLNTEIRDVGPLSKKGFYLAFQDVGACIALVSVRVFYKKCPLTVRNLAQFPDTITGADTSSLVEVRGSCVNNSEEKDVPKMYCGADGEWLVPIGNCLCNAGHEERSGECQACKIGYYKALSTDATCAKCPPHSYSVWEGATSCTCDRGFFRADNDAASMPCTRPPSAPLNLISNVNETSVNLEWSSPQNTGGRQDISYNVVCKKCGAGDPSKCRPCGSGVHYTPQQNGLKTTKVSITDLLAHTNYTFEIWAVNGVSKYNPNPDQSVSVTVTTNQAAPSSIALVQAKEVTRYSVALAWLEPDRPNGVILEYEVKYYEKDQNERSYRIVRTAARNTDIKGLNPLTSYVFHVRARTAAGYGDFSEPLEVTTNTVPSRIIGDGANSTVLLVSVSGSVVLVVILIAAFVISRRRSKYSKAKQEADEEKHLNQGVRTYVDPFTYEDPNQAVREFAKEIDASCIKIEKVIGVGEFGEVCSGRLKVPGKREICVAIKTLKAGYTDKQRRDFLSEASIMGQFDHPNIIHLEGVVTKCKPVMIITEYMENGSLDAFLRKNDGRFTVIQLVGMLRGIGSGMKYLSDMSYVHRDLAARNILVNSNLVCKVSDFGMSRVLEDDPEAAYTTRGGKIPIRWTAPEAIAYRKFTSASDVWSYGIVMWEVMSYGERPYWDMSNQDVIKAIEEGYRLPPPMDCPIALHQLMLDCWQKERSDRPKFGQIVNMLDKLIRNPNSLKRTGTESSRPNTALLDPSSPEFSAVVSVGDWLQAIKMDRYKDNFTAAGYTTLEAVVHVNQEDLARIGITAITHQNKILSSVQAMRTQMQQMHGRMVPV

MINK1 = MINK1 (Homo sapiens (Human), UniProt Q8N4C8); assay: Dundee profiling
MINK1, sequence (Q8N4C8 whole entry, species assumed): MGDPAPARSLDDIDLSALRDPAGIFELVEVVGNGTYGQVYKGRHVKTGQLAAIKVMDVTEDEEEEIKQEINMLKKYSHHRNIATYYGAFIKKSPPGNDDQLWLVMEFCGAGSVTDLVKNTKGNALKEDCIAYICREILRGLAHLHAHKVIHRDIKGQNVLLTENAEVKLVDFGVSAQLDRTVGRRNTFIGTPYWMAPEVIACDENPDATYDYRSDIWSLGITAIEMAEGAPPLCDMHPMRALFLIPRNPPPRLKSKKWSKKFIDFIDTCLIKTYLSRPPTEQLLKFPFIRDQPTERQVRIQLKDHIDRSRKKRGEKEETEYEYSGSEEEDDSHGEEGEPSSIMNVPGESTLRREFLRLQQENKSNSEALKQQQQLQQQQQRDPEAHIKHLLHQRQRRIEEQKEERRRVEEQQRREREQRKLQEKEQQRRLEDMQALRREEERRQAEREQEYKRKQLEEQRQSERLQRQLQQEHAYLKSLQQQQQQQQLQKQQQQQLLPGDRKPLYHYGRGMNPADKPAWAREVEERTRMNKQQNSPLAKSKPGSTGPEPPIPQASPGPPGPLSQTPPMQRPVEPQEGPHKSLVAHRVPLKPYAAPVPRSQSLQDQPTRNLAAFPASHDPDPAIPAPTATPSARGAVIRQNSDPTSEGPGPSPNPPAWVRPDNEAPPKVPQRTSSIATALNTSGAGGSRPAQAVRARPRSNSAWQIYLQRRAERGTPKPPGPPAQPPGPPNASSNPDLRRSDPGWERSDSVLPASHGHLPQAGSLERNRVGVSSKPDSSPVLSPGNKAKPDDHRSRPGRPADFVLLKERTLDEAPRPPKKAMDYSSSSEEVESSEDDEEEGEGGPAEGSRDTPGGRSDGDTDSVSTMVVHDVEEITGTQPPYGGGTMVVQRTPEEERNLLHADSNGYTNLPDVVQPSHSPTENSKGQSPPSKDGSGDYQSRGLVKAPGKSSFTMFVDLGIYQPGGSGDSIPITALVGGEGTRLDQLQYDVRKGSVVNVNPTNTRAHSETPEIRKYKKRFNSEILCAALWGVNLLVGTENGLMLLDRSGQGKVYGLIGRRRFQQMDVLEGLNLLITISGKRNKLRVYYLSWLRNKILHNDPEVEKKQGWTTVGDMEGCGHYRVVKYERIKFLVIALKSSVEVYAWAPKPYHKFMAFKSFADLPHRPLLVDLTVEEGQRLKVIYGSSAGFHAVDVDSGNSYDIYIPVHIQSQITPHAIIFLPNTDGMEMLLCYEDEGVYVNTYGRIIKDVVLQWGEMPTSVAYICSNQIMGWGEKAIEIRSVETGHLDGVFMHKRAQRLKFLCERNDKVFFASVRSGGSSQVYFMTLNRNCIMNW

[3] = read-out: percent remaining enzymatic activity
[4] = read-out: percent remaining enzymatic activity, I1, 1 μM
[5] = read-out: percent remaining enzymatic activity, I10

JNK1, sequence (P45983 whole entry, species assumed): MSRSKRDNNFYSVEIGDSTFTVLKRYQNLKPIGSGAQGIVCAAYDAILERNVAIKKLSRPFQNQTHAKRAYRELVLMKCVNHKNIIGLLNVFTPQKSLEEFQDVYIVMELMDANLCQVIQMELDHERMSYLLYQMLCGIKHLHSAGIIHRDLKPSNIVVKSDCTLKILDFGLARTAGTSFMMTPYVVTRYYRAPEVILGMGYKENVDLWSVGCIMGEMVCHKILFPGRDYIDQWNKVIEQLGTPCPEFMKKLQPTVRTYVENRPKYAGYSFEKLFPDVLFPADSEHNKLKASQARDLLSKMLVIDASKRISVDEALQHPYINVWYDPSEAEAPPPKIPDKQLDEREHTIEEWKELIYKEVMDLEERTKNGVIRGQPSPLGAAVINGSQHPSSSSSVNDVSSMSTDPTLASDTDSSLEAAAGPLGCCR

With `CNc1nc(Nc2ccc(C(=O)N3CCOCC3)cc2OC)nc2[nH]cc(Cl)c12` [Compound 18, (4-((5-chloro-4-(methylamino)-7H-pyrrolo[2,3-d]pyrimidin-2-yl)amino)-3-methoxyphenyl)(morpholino)methanone] the KinomeScan value (EGFR (S752-I759del)) was 97, the “percent remaining enzymatic activity” value (JNK1; I10) was 6% and the remaining activity at 1 µM (JNK1; [3]) was 38%. It also gave a remaining activity at 1 µM (PIM3; [4]) of 96%, a remaining activity at 1 µM (PIM3; [5]) of 75% and a KinomeScan value (IRAK4) of 100. For the same molecule, the remaining activity at 1 µM (ABL; [4]) was 106%, the remaining activity at 1 µM (ABL; [5]) was 103% and the “percent remaining enzymatic activity” value (MAP4K3; I10) was 41%. For the same molecule, the remaining activity at 1 µM (MAP4K3; [3]) was 98%, the remaining activity at 1 µM (Aurora B; [4]) was 97% and the remaining activity at 1 µM (Aurora B; [5]) was 90%. The remaining activity at 1 µM (LKB1; [4]) was 103%, the remaining activity at 1 µM (LKB1; [5]) was 96% and the remaining activity at 1 µM (MKK6; [4]) was 37%. For the same molecule, the remaining activity at 1 µM (MKK6; [5]) was 11%, the remaining activity at 1 µM (IRAK1; [4]) was 109% and the remaining activity at 1 µM (IRAK1; [5]) was 92%. It also gave a remaining activity at 1 µM (IKKb; [4]) of 100%, a remaining activity at 1 µM (IKKb; [5]) of 95% and a remaining activity at 1 µM (ULK2; [4]) of 110%. The remaining activity at 1 µM (ULK2; [5]) was 95%, the remaining activity at 1 µM (TESK1; [4]) was 97% and the remaining activity at 1 µM (TESK1; [5]) was 95%. For the same molecule, the remaining activity at 1 µM (PAK4; [4]) was 102%, the remaining activity at 1 µM (PAK4; [5]) was 92% and the remaining activity at 1 µM (PIM1; [4]) was 95%. For the same molecule, the remaining activity at 1 µM (PIM1; [5]) was 88%, the KinomeScan value (CDC2L5) was 100 and the remaining activity at 1 µM (PLK1; [4]) was 62%. It also gave a remaining activity at 1 µM (PLK1; [5]) of 13%, a remaining activity at 1 µM (DYRK1A; [4]) of 49% and a remaining activity at 1 µM (DYRK1A; [5]) of 8%. The KinomeScan value (MST3 [1]) was 91, the KinomeScan value (EPHB2) was 98 and the remaining activity at 1 µM (GCK; [4]) was 86%. The remaining activity at 1 µM (GCK; [5]) was 41%, the “percent remaining enzymatic activity” value (MST3 [2]; I10) was 95% and the remaining activity at 1 µM (MST3 [2]; [3]) was 102%. It also gave a KinomeScan value (MET (M1250T)) of 80, a remaining activity at 1 µM (MPSK1; [4]) of 113% and a remaining activity at 1 µM (MPSK1; [5]) of 106%. The IC50 (CHK2) was 27.6 nM, the inhibition at 1 µM (CHK2; read-out: inhibition of kinase activity of the DMSO control) was over 90% and the remaining activity at 1 µM (CHK2; [4]) was 5%. It also gave a remaining activity at 1 µM (CHK2; [5]) of 1%, a remaining activity at 1 µM (MST4; [4]) of 103% and a remaining activity at 1 µM (MST4; [5]) of 97%. For the same molecule, the KinomeScan value (ULK3) was 96, the remaining activity at 1 µM (TrkA; [4]) was 85% and the remaining activity at 1 µM (TrkA; [5]) was 84%. The remaining activity at 1 µM (IRR; [4]) was 31%, the remaining activity at 1 µM (IRR; [5]) was 10% and the KinomeScan value (MET) was 97. It also gave a KinomeScan value (DLK) of 89, a remaining activity at 1 µM (PDGFRA; [4]) of 109% and a remaining activity at 1 µM (PDGFRA; [5]) of 89%. It also gave a remaining activity at 1 µM (EPH-A4; [4]) of 107%, a remaining activity at 1 µM (EPH-A4; [5]) of 102% and a remaining activity at 1 µM (MINK1; [4]) of 95%. It also gave a remaining activity at 1 µM (MINK1; [5]) of 68%.
